Data as given in patent publication US11724997B2, “Compounds and compositions for treating conditions associated with APJ receptor activity” (Annapurna Bio, Inc., priority 2018, dated 2023).

Biological target: T1, APJ Receptor (Homo sapiens, UniProt P35414)
T1 sequence (P35414 1-380): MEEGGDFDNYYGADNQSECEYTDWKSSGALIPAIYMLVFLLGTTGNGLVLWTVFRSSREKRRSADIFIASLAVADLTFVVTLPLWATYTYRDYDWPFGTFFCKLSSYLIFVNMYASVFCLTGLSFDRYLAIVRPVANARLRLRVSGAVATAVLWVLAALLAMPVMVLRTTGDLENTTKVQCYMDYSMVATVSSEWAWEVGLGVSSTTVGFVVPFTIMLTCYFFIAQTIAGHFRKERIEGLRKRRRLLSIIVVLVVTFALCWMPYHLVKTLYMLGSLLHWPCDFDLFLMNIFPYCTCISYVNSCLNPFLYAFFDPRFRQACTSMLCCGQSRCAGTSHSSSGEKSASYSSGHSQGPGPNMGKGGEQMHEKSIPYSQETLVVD
Assay: APJ cAMP assay: inhibition of forskolin-stimulated cAMP, enzyme fragment complementation, in CHO-K1 cells stably expressing the APJ Receptor
Type: cell-based
Settings: CHO-K1 cell line (DiscoverX) stably expressing APJ Receptor; EC80 forskolin; 30 minutes at 37° C.; read-out: APJ cAMP EC50 Potency range
From the text: Activation of APJ receptor is known to inhibit forskolin-stimulated cyclic AMP (cAMP) production in cells in a pertussis toxin-sensitive manner which indicates primary coupling to the GαI subunit of the G protein heterotrimeric complex. In addition to signaling through G protein and inhibition of cAMP, APJ receptor activation also results in β-arrestin recruitment, receptor internalization and activation of extracellular-regulated kinases (ERKs).
In order to optimize functional activity directed toward Gi coupling we utilized a CHO-K1 cell line developed by DiscoverX stably expressing the APJ Receptor. Cells expressing APJR receptor were plated in a 384-well microtiter plates and incubated overnight at 37° C. with 5% CO2 to allow the cells to attach and grow. Media was then aspirated from the cells and replaced with 15 uL 2:1 Hanks Balanced Salt Solution (HBSS)/10 mM Hepes. cAMP XS+ Ab reagent. Five microliters (5 uL) of previously generated compound sample stocks at 4× final concentration in assay buffer containing 4×EC80 forskolin were then added to the cells and allowed to incubate at 37° C. for 30 minutes.
After incubation the assay signal was generated using a technology termed enzyme fragment complementation (EFC). In EFC the enzyme B-galactosidase is split into two complementary portions (EA and ED). The fragment ED is fused to cAMP and in the assay format competes with endogenous cAMP for binding to a cAMP specific antibody. Activated B-Gal is formed when exogenous EA fragment binds to free ED-cAMP (not bound to cAMP specific antibody). Activated enzyme levels are detected through conversion of B-gal chemiluminescent substrate which generates a detectable luminescence signal and read on standard microtiter plate.
The methodology for detection of cAMP using EFC requires incubation with 20 uL of cAMP XS+ ED/CL lysis cocktail for one hour followed by incubation with 20 uL cAMP XS+ EA reagent for three hours at room temperature. Microplates were read following signal generation with a PerkinElmer Envision instrument utilizing chemiluminescent signal detection.
Compound activity was analyzed using CBIS data analysis suite (ChemInnovation, CA).
Percentage activity was calculated using the following formula: % Activity=[…]×(1−(mean RLU of test sample−mean RLU of Max control)/(mean RLU of vehicle control−mean RLU of Max control))
The biological activity of the exemplified compounds of this invention determined by the assay described above is shown in Table 1. The APJ cAMP EC50 potency ranges are as follows: A: EC50<1 nM; B: 1≤EC50<100 nM; and C: 100≤EC50<10,000 nM.

Row | Compound | EC50 [nM]
1 | COc1cccc(OC)c1-n1c(C(=O)NS(=O)(=O)Cc2ccccc2)nnc1-c1ccc(C)cn1 [Example 15, N-(benzylsulfonyl)-4-(2,6-dimethoxyphenyl)-5-(5-methylpyridin-2-yl)-4H-1,2,4-triazole-3-carboxamide] | 1 to 100
2 | COc1cccc(OC)c1-n1c(C(=O)NS(=O)(=O)Cc2ncccn2)nnc1-c1cccc(OC(F)F)n1 [Example 22, 5-(6-(Difluoromethoxy)pyridin-2-yl)-4-(2,6-dimethoxyphenyl)-N-((pyrimidin-2-ylmethyl)sulfonyl)-4H-1,2,4-triazole-3-carboxamide] | 1 to 100
3 | CCOc1cccc(-c2nnc(C(=O)NS(=O)(=O)Cc3ncccn3)n2-c2c(OC)cccc2OC)n1 [Example 41, 4-(2,6-Dimethoxyphenyl)-5-(6-ethoxypyridin-2-yl)-N-((pyrimidin-2-ylmethyl)sulfonyl)-4H-1,2,4-triazole-3-carboxamide] | < 1
4 | COc1cccc(OC)c1-n1c(C(=O)NS(=O)(=O)Cc2ncccn2)nnc1-c1cccc(OC2CC2)n1 [Example 20, 5-(6-Cyclopropoxypyridin-2-yl)-4-(2,6-dimethoxyphenyl)-N-((pyrimidin-2-ylmethyl)sulfonyl)-4H-1,2,4-triazole-3-carboxamide] | < 1
5 | COc1cccc(OC)c1-n1c(C(=O)NS(=O)(=O)Cc2ncccn2)nnc1-c1ccc(C)o1 [Example 17, 4-(2,6-Dimethoxyphenyl)-5-(5-methylfuran-2-yl)-N-((pyrimidin-2-ylmethyl)sulfonyl)-4H-1,2,4-triazole-3-carboxamide] | < 1
6 | COc1cccc(OC)c1-n1c(C(=O)NS(=O)(=O)Cc2ncccn2)nnc1-c1ccc(F)c(OC)n1 [Example 23, 4-(2,6-Dimethoxyphenyl)-5-(5-fluoro-6-methoxypyridin-2-yl)-N-((pyrimidin-2-ylmethyl)sulfonyl)-4H-1,2,4-triazole-3-carboxamide] | 100 to 10000
7 | COc1cccc(-c2nnc(C(=O)NS(=O)(=O)Cc3cncnc3)n2-c2c(OC)cccc2OC)n1 [Example 36, 4-(2,6-Dimethoxyphenyl)-5-(6-methoxypyridin-2-yl)-N-((pyrimidin-5-ylmethyl)sulfonyl)-4H-1,2,4-triazole-3-carboxamide] | 1 to 100
8 | CCOc1cccc(-c2nnc(C(=O)NS(=O)(=O)[C@@H](C)c3ccccc3)n2-c2c(OC)cccc2OC)n1 (single isomer, unassigned) [Example 39] | < 1
9 | COc1cccc(-c2nnc(C(=O)NS(=O)(=O)Cc3ncccn3)n2-c2c(OC)cccc2OC)n1 [Example 26, 4-(2,6-dimethoxyphenyl)-5-(6-methoxypyridin-2-yl)-N-((pyrimidin-2-ylmethyl)sulfonyl)-4H-1,2,4-triazole-3-carboxamide] | < 1
10 | COc1cccc(OC)c1-n1c(C(=O)NS(=O)(=O)Cc2ncn(C)n2)nnc1-c1ccc(C)o1 [Example 55, 4-(2,6-Dimethoxyphenyl)-N-(((1-methyl-1H-1,2,4-triazol-3-yl)methyl)sulfonyl)-5-(5-methylfuran-2-yl)-4H-1,2,4-triazole-3-carboxamide] | < 1
11 | COc1cccc(OC)c1-n1c(C(=O)NS(=O)(=O)Cc2ccccc2)nnc1-c1cccc(C)n1 [Example 14, N-(benzylsulfonyl)-4-(2,6-dimethoxyphenyl)-5-(6-methylpyridin-2-yl)-4H-1,2,4-triazole-3-carboxamide] | 1 to 100
12 | COc1cccc(OC)c1-n1c(C(=O)NS(=O)(=O)Cc2ccccc2)nnc1-c1nc(C2CC2)n[nH]1 [Example 65, N-(benzylsulfonyl)-5-cyclopropyl-4′-(2,6-dimethoxyphenyl)-2H,4′H-[3,3′-bi(1,2,4-triazole)]-5′-carboxamide] | 100 to 10000
13 | COc1cccc(-c2nnc(C(=O)NS(=O)(=O)[C@@H](C)c3ccccc3)n2-c2c(OC)cccc2OC)n1 (single isomer, unassigned) [Example 32] | 1 to 100
14 | CCOc1cccc(-c2nnc(C(=O)NS(=O)(=O)CCc3ccncc3)n2-c2c(OC)cccc2OC)n1 [Example 49, 4-(2,6-Dimethoxyphenyl)-5-(6-ethoxypyridin-2-yl)-N-((2-(pyridin-4-yl)ethyl)sulfonyl)-4H-1,2,4-triazole-3-carboxamide] | < 1
15 | CCOc1cccc(-c2nnc(C(=O)NS(=O)(=O)C[C@H](C)c3ccccc3)n2-c2c(OC)cccc2OC)n1 (single isomer, unassigned) [Example 46] | < 1
16 | CCOc1cccc(-c2nnc(C(=O)NS(=O)(=O)[C@@H]3CCc4ccccc4C3)n2-c2c(OC)cccc2OC)n1 (single isomer, unassigned) [Example 48] | < 1
17 | COc1cccc(-c2nnc(C(=O)NS(=O)(=O)Cc3ccc(F)cc3)n2-c2c(OC)cccc2OC)n1 [Example 31, 4-(2,6-Dimethoxyphenyl)-N-((4-fluorobenzyl)sulfonyl)-5-(6-methoxypyridin-2-yl)-4H-1,2,4-triazole-3-carboxamide] | < 1
18 | COc1cccc(OC)c1-n1c(C(=O)NS(=O)(=O)Cc2ccccc2)nnc1-c1cccc(OC(F)F)n1 [Example 21, N-(benzylsulfonyl)-5-(6-(difluoromethoxy)pyridin-2-yl)-4-(2,6-dimethoxyphenyl)-4H-1,2,4-triazole-3-carboxamide] | 1 to 100
19 | COc1cccc(-c2nnc(C(=O)NS(=O)(=O)Cc3ccccc3)n2-c2c(OC)cccc2OC)n1 [Example 13, N-(benzylsulfonyl)-4-(2,6-dimethoxyphenyl)-5-(6-methoxypyridin-2-yl)-4H-1,2,4-triazole-3-carboxamide] | 1 to 100
20 | COc1nc(-c2nnc(C(=O)NS(=O)(=O)Cc3ccccc3)n2-c2c(OC)cccc2OC)cs1 [Example 6, N-(benzylsulfonyl)-4-(2,6-dimethoxyphenyl)-5-(2-methoxythiazol-4-yl)-4H-1,2,4-triazole-3-carboxamide] | 1 to 100
21 | CCOc1cccc(-c2nnc(C(=O)NS(=O)(=O)Cc3ncc(OC)cn3)n2-c2c(OC)cccc2OC)n1 [Example 44, 4-(2,6-Dimethoxyphenyl)-5-(6-ethoxypyridin-2-yl)-N-(((5-methoxypyrimidin-2-yl)methyl)sulfonyl)-4H-1,2,4-triazole-3-carboxamide] | < 1
22 | CCOc1cccc(-c2nnc(C(=O)NS(=O)(=O)c3ccccc3)n2-c2c(OC)cccc2OC)n1 [Example 1, 4-(2,6-dimethoxyphenyl)-5-(6-ethoxypyridin-2-yl)-N-(phenylsulfonyl)-4H-1,2,4-triazole-3-carboxamide] | < 1
23 | COc1ccc(Cn2nc(C3CC3)nc2-c2nnc(C(=O)NS(=O)(=O)Cc3ccccc3)n2-c2c(OC)cccc2OC)cc1 [Example 64, N-(benzylsulfonyl)-5-cyclopropyl-4′-(2,6-dimethoxyphenyl)-2-(4-methoxybenzyl)-2H,4′H-[3,3′-bi(1,2,4-triazole)]-5′-carboxamide] | 100 to 10000
24 | CCOc1cccc(-c2nnc(C(=O)NS(=O)(=O)[C@H]3CCc4ccccc4C3)n2-c2c(OC)cccc2OC)n1 (single isomer, unassigned) [Example 47] | < 1
25 | CCOc1cccc(-c2nnc(C(=O)NS(=O)(=O)CCc3ccccc3)n2-c2c(OC)cccc2OC)n1 [Example 3, 4-(2,6-dimethoxyphenyl)-5-(6-ethoxypyridin-2-yl)-N-(phenethylsulfonyl)-4H-1,2,4-triazole-3-carboxamide] | < 1
26 | COc1cccc(-c2nnc(C(=O)NS(=O)(=O)Cc3cccc(F)c3)n2-c2c(OC)cccc2OC)n1 [Example 30, 4-(2,6-Dimethoxyphenyl)-N-((3-fluorobenzyl)sulfonyl)-5-(6-methoxypyridin-2-yl)-4H-1,2,4-triazole-3-carboxamide] | 1 to 100
27 | COc1cccc(-c2nnc(C(=O)NS(=O)(=O)Cc3ccccc3)n2-c2c(Cl)cccc2Cl)n1 [Example 60, N-(benzylsulfonyl)-4-(2,6-dichlorophenyl)-5-(6-methoxypyridin-2-yl)-4H-1,2,4-triazole-3-carboxamide] | 100 to 10000
28 | CCOc1cccc(-c2nnc(C(=O)NS(=O)(=O)[C@H](C)c3ccccc3)n2-c2c(OC)cccc2OC)n1 (single isomer, unassigned) [Example 40] | < 1
